Our source for the IC50 values is ChEMBL document CHEMBL4145503, “Design, synthesis and in vitro biological evaluation of novel [1,2,3]triazolo[4,5-d]pyrimidine derivatives containing a thiosemicarbazide moiety” (Eur J Med Chem, 2018).

Common to all, as to format: functional, cell-based
In one experiment the test system is MGC-803. The experiment in a line: Antiproliferative activity against human MGC803 cells after 72 hrs by MTT assay. The following applies: MGC-803, 72 h.
Another experiment concerns PC-3. The experiment in a line: Antiproliferative activity against human PC3 cells after 72 hrs by MTT assay. The note with it: PC-3, 72 h.
Another experiment relates to NCI-H1650. Nature of the experiment: Antiproliferative activity against human NCI-H1650 cells after 72 hrs by MTT assay. The note with it: NCI-H1650, 72 h.

SMILES strings stand for the structures.

With `CCCSc1nc(NNC(=S)NCc2ccccc2)c2nnn(CCc3cccs3)c2n1`, the IC50 with MGC-803 was 41.1 µM; in the experiment on PC-3, greater than 64 µM; in the experiment with NCI-H1650 it was greater than 64 µM.
For the molecule `CCCSc1nc(NNC(=S)NCc2ccccc2)c2nnn(CCc3c[nH]c4ccccc34)c2n1`, the IC50 in the experiment on MGC-803 was 30.3 µM; in the experiment with PC-3, 15.3 µM; in the experiment on NCI-H1650, greater than 64 µM.
For `O=c1[nH]cc(F)c(=O)[nH]1` [FLUOROURACIL] the same measures were 7.86 µM, 27.6 µM and 14.6 µM.
